According to the supplement of paper PMC10307832:

How the values were obtained:
Experiment in all cases: relative viability (nuclei count vs DMSO), 5 days (fraction); higher = more cells survive
[1] = compound: CC1=C(C(=NN1)C)CC2=C(C3=C(S2)N(C(=O)N(C3=O)C)CC(C)C)C(=O)N4C[C@@H](CO4)O + N=C(N)NC(=N)NCCc1ccccc1 [Phenformin] (partner 250 µM)
How it was run: (§1)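 Lung cancer cell lines were seeded in 1536-well plates and dosed by pin tool the next day, with either a single drug or a fixed anchor-drug dose combined with five library-drug doses (not always all listed) spaced in √10 steps. Five days later, one step fixed the cells and stained their nuclei (final 0.05% Triton X-100, 1% formaldehyde, 1 ug/ml Hoechst), and nuclei were counted on 4× images. Relative viability is the nuclei count in treated wells divided by the count in vehicle wells, and each value is the median of duplicate plates.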

IDH-C35 + Trametinib = compound: Cc1ccccc1C(C(=O)NC1CCCCC1)N(C(=O)Cn1ccnc1C)c1cccc(F)c1 [IDH-C35] + CC(=O)Nc1cccc(-n2c(=O)n(C3CC3)c(=O)c3c(Nc4ccc(I)cc4F)n(C)c(=O)c(C)c32)c1 [Trametinib] (partner 0.02 µM)
How it was run: as §1

IDH-C35 + Pictilisib = compound: Cc1ccccc1C(C(=O)NC1CCCCC1)N(C(=O)Cn1ccnc1C)c1cccc(F)c1 [IDH-C35] + CS(=O)(=O)N1CCN(Cc2cc3nc(-c4cccc5[nH]ncc45)nc(N4CCOCC4)c3s2)CC1 [Pictilisib] (partner 1 µM)
How it was run: as §1

IDH-C35 + Vorinostat = compound: Cc1ccccc1C(C(=O)NC1CCCCC1)N(C(=O)Cn1ccnc1C)c1cccc(F)c1 [IDH-C35] + O=C(CCCCCCC(=O)Nc1ccccc1)NO [Vorinostat] (partner 1 µM)
How it was run: as §1

Row | Cell Line | relative viability ([1]; first compound 0.0025 µM) | relative viability ([1]; first compound 0.007906 µM) | relative viability ([1]; first compound 0.025 µM) | relative viability ([1]; first compound 0.07906 µM) | relative viability ([1]; first compound 0.25 µM) | relative viability (IDH-C35 + Trametinib; first compound 0.08 µM) | relative viability (IDH-C35 + Trametinib; first compound 0.253 µM) | relative viability (IDH-C35 + Trametinib; first compound 0.8 µM) | relative viability (IDH-C35 + Trametinib; first compound 2.53 µM) | relative viability (IDH-C35 + Trametinib; first compound 8 µM) | relative viability (IDH-C35 + Pictilisib; first compound 0.08 µM) | relative viability (IDH-C35 + Pictilisib; first compound 0.253 µM) | relative viability (IDH-C35 + Pictilisib; first compound 0.8 µM) | relative viability (IDH-C35 + Pictilisib; first compound 2.53 µM) | relative viability (IDH-C35 + Pictilisib; first compound 8 µM) | relative viability (IDH-C35 + Vorinostat; first compound 0.08 µM) | relative viability (IDH-C35 + Vorinostat; first compound 0.253 µM) | relative viability (IDH-C35 + Vorinostat; first compound 0.8 µM) | relative viability (IDH-C35 + Vorinostat; first compound 2.53 µM) | relative viability (IDH-C35 + Vorinostat; first compound 8 µM)
1 | NCI-H1651 | 0.374 | 0.214 | 0.259 | 0.239 | 0.261 | 0.856 | 0.899 | 0.838 | 0.858 | 0.832 | 0.562 | 0.522 | 0.504 | 0.492 | 0.434 | 0.539 | 0.592 | 0.531 | 0.513 | 0.543
2 | NCI-H1666 | 0.571 | 0.621 | 0.548 | 0.538 | 0.593 | 0.813 | 0.854 | 0.902 | 0.799 | 0.876 | 0.471 | 0.404 | 0.322 | 0.622 | 0.426 | 1.04 | 0.997 | 1.08 | 1.04 | 0.971
3 | NCI-H1734 | 0.349 | 0.218 | 0.168 | 0.164 | 0.156 | 0.656 | 0.811 | 0.603 | 0.661 | 0.616 | 0.503 | 0.499 | 0.427 | 0.414 | 0.432 | 0.712 | 0.846 | 0.83 | 0.826 | 0.815
4 | NCI-H1755 | 0.637 | 0.607 | 0.589 | 0.583 | 0.622 | 0.754 | 0.735 | 0.762 | 0.73 | 0.675 | 0.451 | 0.411 | 0.448 | 0.452 | 0.412 | 0.738 | 0.8 | 0.82 | 0.809 | 0.725
5 | NCI-H1793 | 0.211 | 0.213 | 0.138 | 0.138 | 0.135 | 0.42 | 0.45 | 0.374 | 0.472 | 0.401 | 0.265 | 0.336 | 0.364 | 0.371 | 0.256 | 0.784 | 0.82 | 0.773 | 0.913 | 0.881
6 | NCI-H1915 | 0.365 | 0.329 | 0.358 | 0.345 | 0.357 | 0.316 | 0.315 | 0.275 | 0.278 | 0.276 | 0.976 | 0.914 | 0.975 | 0.934 | 0.914 | 0.499 | 0.52 | 0.488 | 0.451 | 0.574
7 | NCI-H1944 | 0.184 | 0.222 | 0.186 | 0.195 | 0.175 | 0.392 | 0.421 | 0.42 | 0.332 | 0.393 | 0.38 | 0.364 | 0.323 | 0.343 | 0.346 | 0.496 | 0.613 | 0.474 | 0.538 | 0.566
8 | NCI-H1975 | 0.401 | 0.426 | 0.401 | 0.389 | 0.376 | 0.384 | 0.363 | 0.323 | 0.345 | 0.32 | 0.293 | 0.322 | 0.288 | 0.319 | 0.326 | 0.73 | 0.726 | 0.701 | 0.716 | 0.649
9 | NCI-H1993 | 0.495 | 0.416 | 0.457 | 0.433 | 0.436 | 0.479 | 0.586 | 0.632 | 0.542 | 0.645 | 0.902 | 0.853 | 0.766 | 0.743 | 0.712 | 0.726 | 0.717 | 0.77 | 1.08 | 0.897
10 | NCI-H2009 | 0.487 | 0.484 | 0.455 | 0.557 | 0.503 | 0.29 | 0.308 | 0.314 | 0.34 | 0.288 | 0.903 | 0.75 | 0.907 | 0.709 | 0.8 | 0.762 | 0.688 | 0.758 | 0.69 | 0.681
11 | NCI-H2023 | 0.382 | 0.437 | 0.361 | 0.431 | 0.412 | 0.476 | 0.503 | 0.548 | 0.528 | 0.475 | 0.285 | 0.22 | 0.245 | 0.229 | 0.233 | 0.667 | 0.799 | 0.68 | 0.634 | 0.636
12 | NCI-H2085 | 0.677 | 0.674 | 0.589 | 0.571 | 0.44 | 0.634 | 0.493 | 0.571 | 0.729 | 0.457 | 0.489 | 0.523 | 0.451 | 0.49 | 0.442 | 0.88 | 0.784 | 0.81 | 0.86 | 0.719
13 | NCI-H2087 | 0.45 | 0.474 | 0.395 | 0.471 | 0.447 | 0.211 | 0.226 | 0.264 | 0.265 | 0.197 | 1.15 | 0.901 | 0.83 | 0.984 | 0.886 | 0.821 | 0.715 | 0.74 | 0.624 | 0.633
14 | NCI-H2126 | 0.583 | 0.526 | 0.523 | 0.529 | 0.585 | 0.568 | 0.563 | 0.564 | 0.519 | 0.537 | 0.494 | 0.508 | 0.48 | 0.507 | 0.472 | 0.683 | 0.806 | 0.698 | 0.5 | 0.61
15 | NCI-H2170 | 0.377 | 0.384 | 0.432 | 0.378 | 0.378 | 0.855 | 0.864 | 0.882 | 0.85 | 0.93 | 0.33 | 0.378 | 0.332 | 0.342 | 0.336 | 0.796 | 0.809 | 0.804 | 0.844 | 0.85
16 | NCI-H2228 | 0.366 | 0.377 | 0.327 | 0.403 | 0.247 | 0.456 | 0.559 | 0.458 | 0.836 | 0.546 | 0.328 | 0.296 | 0.421 | 0.486 | 0.457 | 0.64 | 0.632 | 0.563 | 0.754 | 0.648
17 | NCI-H2347 | 0.455 | 0.429 | 0.295 | 0.275 | 0.264 | 0.342 | 0.281 | 0.323 | 0.28 | 0.283 | 0.627 | 0.603 | 0.813 | 0.788 | 0.899 | 0.4 | 0.682 | 0.531 | 0.59 | 0.656
18 | NCI-H2405 | 0.348 | 0.286 | – | 0.277 | 0.268 | 0.66 | 0.679 | 0.59 | 0.58 | 0.589 | 0.487 | 0.363 | 0.377 | – | 0.52 | 1.08 | 0.956 | 0.968 | 1.24 | 1.02
19 | NCI-H3122 | 0.385 | 0.365 | 0.364 | 0.392 | 0.375 | 0.22 | 0.249 | 0.21 | 0.236 | 0.212 | 0.628 | 0.572 | 0.592 | 0.611 | 0.598 | 1.01 | 0.947 | 0.793 | 0.773 | 1.08
20 | PC-3 [JPC-3] | 0.467 | 0.461 | 0.477 | 0.461 | 0.447 | 0.65 | 0.745 | 0.725 | 0.758 | 0.67 | 0.802 | 0.772 | 0.687 | 0.844 | 0.703 | 0.748 | 0.815 | 0.768 | 0.988 | 0.814
21 | PC-14 | 0.548 | 0.585 | 0.317 | 0.586 | 0.74 | 0.645 | 0.695 | 0.735 | 0.768 | 0.705 | 0.712 | 0.685 | 0.641 | 0.575 | 0.642 | 0.749 | 0.81 | 0.748 | 0.76 | 0.649
22 | RERF-LC-KJ | 0.434 | 0.46 | 0.431 | 0.428 | 0.481 | 0.846 | 0.831 | 0.868 | 0.904 | 0.779 | 0.53 | 0.671 | 0.529 | 0.554 | 0.509 | 0.655 | 0.636 | 0.698 | 0.718 | 0.754
23 | SK-LU-1 | 0.338 | 0.234 | 0.191 | 0.202 | 0.223 | 0.454 | 0.489 | 0.507 | 0.485 | 0.536 | 0.535 | 0.483 | 0.641 | 0.606 | 0.63 | 0.733 | 0.752 | 0.892 | 0.831 | 0.778
24 | SK-MES-1 | 0.701 | 0.671 | 0.629 | 0.686 | 0.704 | 0.513 | 0.6 | 0.581 | 0.567 | 0.45 | 0.335 | 0.414 | 0.358 | 0.343 | 0.295 | 1.18 | 1.08 | 1.04 | 1.2 | 1.02
25 | SW 1573 | 0.239 | 0.236 | 0.115 | 0.123 | 0.117 | 0.491 | 0.793 | 0.531 | 0.571 | 0.518 | 0.468 | 0.502 | 0.439 | 0.59 | 0.476 | 0.859 | 0.851 | 0.7 | 0.588 | 0.666
26 | UMC-11 | 0.168 | 0.195 | 0.156 | 0.17 | 0.188 | 0.738 | 0.761 | 0.617 | 0.685 | 0.772 | 0.874 | 0.794 | 0.759 | 0.79 | 0.889 | 0.373 | 0.468 | 0.435 | 0.434 | 0.46
